Measurements taken from publication PMC3407795 (EJNMMI Research, 2012).
Like-named read-outs stand apart in the source and are kept apart here.

Assays:
[1] = Metabolism in blood (in vivo stability); design: species or system mouse; conditions: healthy male Swiss albino mice, blood collected 5 min after iv injection (3 nmol), RP-HPLC radioanalysis
Description: The animals were kept for 5 min in cages with free access to water. They were sacrificed by cardiac puncture under ether anesthesia, and blood was withdrawn with a syringe and immediately placed in a pre-chilled EDTA-containing polypropylene vial on ice. Blood samples were centrifuged at 2,000 × g at 4 °C for 10 min.

[2] = Biodistribution in healthy mice; format: in vivo; conditions: male, mouse, total radioactivity, healthy Swiss albino mice
Description: In the in vivo receptor blockade animal group, excess Tate (50 nmol) was administered intravenously (iv) together with the radioligand. Animals were sacrificed in groups of four at 4- and 24-h time points post injection (pi). […] Tissue distribution data were calculated as percent injected dose per gram (%ID/g) applying a suitable algorithm.
(§1) The in vivo data presented as mean %ID/g ± SD (n ≥ 4) were statistically analyzed with Student’s t test (Prism^TM 2.01, GraphPad Software, San Diego, CA, USA). Analyses were 2-tailed, and a P value < 0.05 was considered statistically significant.

[3] = Biodistribution in AR4-2J tumor-bearing mice; format: in vivo; conditions: female, mouse, iv, total radioactivity, AR4-2J tumor SCID mice, mean ± SD; for tissue uptake at 1 h: 1 h pi
Description: In the flanks of each of female SCID mice, inocula (150 μL) containing a suspension of 0.8 × 10^7 AR4-2J cells in PBS buffer were subcutaneously injected. […] Mice were sacrificed at 4 h pi, and biodistribution was studied as described above.
as §1

[4] = Biodistribution in HEK293-hsst2A+ tumor-bearing mice; format: in vivo; conditions: mouse, iv, total radioactivity, HEK293-hsst2A+ tumor SCID mice, mean ± SD
Description: (§2) In the flanks of SCID mice, inocula (150 μL) containing a suspension of 1.8 × 10^7 HEK293-hsst2A^+, -hsst3^+ or -hsst5^+ cells in PBS were subcutaneously injected. Tumors of substantial size were grown within 3 weeks, whereupon biodistribution experiments were performed.
as §1

[5] = Biodistribution in HEK293-hsst3+ tumor-bearing mice; format: in vivo; conditions: mouse, iv, total radioactivity, HEK293-hsst3+ tumor SCID mice, 4 h pi, mean ± SD
Description: as §2, §1

[6] = Biodistribution in HEK293-hsst5+ tumor-bearing mice; format: in vivo; conditions: mouse, iv, total radioactivity, HEK293-hsst5+ tumor SCID mice, 4 h pi, mean ± SD
Description: as §2, §1

[7] = Biodistribution in AR4-2J tumor-bearing mice; format: in vivo; conditions: female, mouse, iv, total radioactivity, AR4-2J tumor SCID mice, 1 h pi, mean ± SD
[8] = blood, 10 pmol, 4 h pi, read-out: Blood uptake
[9] = femur, 10 pmol, 4 h pi, read-out: Femur uptake
[10] = heart, 10 pmol, read-out: Heart uptake
[11] = heart, 10 pmol, 4 h pi, read-out: Heart uptake
[12] = intestines, 10 pmol total peptide, read-out: Intestines uptake
[13] = intestines, 10 pmol total peptide, 4 h pi, read-out: Intestines uptake
[14] = 10 pmol, 4 h pi, read-out: Tumor uptake
[15] = kidneys, 10 pmol, read-out: Kidneys uptake
[16] = kidneys, 10 pmol, 4 h pi, read-out: Kidneys uptake
[17] = liver, 10 pmol, read-out: Liver uptake
[18] = liver, 10 pmol, 4 h pi, read-out: Liver uptake
[19] = lung, 10 pmol total peptide, read-out: Lung uptake
[20] = lung, 10 pmol total peptide, 4 h pi, read-out: Lung uptake
[21] = muscle, 10 pmol total peptide, read-out: Muscle uptake
[22] = muscle, 10 pmol total peptide, 4 h pi, read-out: Muscle uptake
[23] = pancreas, 10 pmol, read-out: Pancreas uptake
[24] = pancreas, 10 pmol, 4 h pi, read-out: Pancreas uptake
[25] = spleen, 10 pmol total peptide, 4 h pi, read-out: Spleen uptake
[26] = stomach, 10 pmol, read-out: Stomach uptake
[27] = stomach, 10 pmol, 4 h pi, read-out: Stomach uptake
[28] = blood, 10 pmol, read-out: Blood uptake
[29] = femur, 10 pmol, read-out: Femur uptake
[30] = 10 pmol, read-out: Tumor uptake
[31] = spleen, 10 pmol total peptide, read-out: Spleen uptake

- intact radiopeptide detected in blood [1]: 6.5%
- tissue uptake at 4 h ([2]; kidney, 10 pmol total peptide, 4 h pi, iv 10 pmol, read-out: Kidney uptake): 22.9 %ID/g
- tissue uptake at 24 h ([2]; kidney, 10 pmol total peptide, 24 h pi, iv 10 pmol): 7.6 %ID/g
- tissue uptake at 4 h ([2]; pancreas, 10 pmol total peptide, 4 h pi, iv 10 pmol, read-out: Pancreas uptake): 2.9 %ID/g
- tissue uptake at 4 h ([2]; pancreas, iv, 4 h pi + excess Tate (50 nmol), read-out: Pancreas uptake, sst2 blockade): 0.17 %ID/g
- tissue uptake at 4 h [3, 8]: 0.19 ± 0.02 %ID/g
- tissue uptake at 4 h ([3]; blood, 4 h pi + co-injection of 50 nmol Tate, read-out: Blood uptake, blocked): 0.26 ± 0.03 %ID/g
- tissue uptake at 4 h [3, 9]: 0.4 ± 0.24 %ID/g
- tissue uptake at 4 h ([3]; femur, 4 h pi + co-injection of 50 nmol Tate, read-out: Femur uptake, blocked): 0.19 ± 0.02 %ID/g
- tissue uptake at 1 h [3, 10]: 0.67 ± 0.12 %ID/g
- tissue uptake at 4 h [3, 11]: 0.18 ± 0.05 %ID/g
- tissue uptake at 4 h ([3]; heart, 4 h pi + co-injection of 50 nmol Tate, read-out: Heart uptake, blocked): 0.17 ± 0.04 %ID/g
- tissue uptake at 1 h [3, 12]: 1.98 ± 0.29 %ID/g
- tissue uptake at 4 h [3, 13]: 1.92 ± 0.25 %ID/g
- tissue uptake at 4 h ([3]; intestines, 4 h pi + co-injection of 50 nmol Tate, read-out: Intestines uptake, blocked): 0.77 ± 0.58 %ID/g
- tissue uptake at 4 h [3, 14]: 1.82 ± 0.36 %ID/g
- tissue uptake at 4 h ([3]; 4 h pi + co-injection of 50 nmol Tate, read-out: Tumor uptake, blocked): 0.21 ± 0.17 %ID/g
- tissue uptake at 1 h [3, 15]: 23.8 ± 4.28 %ID/g
- tissue uptake at 4 h [3, 16]: 21.1 ± 4.43 %ID/g
- tissue uptake at 4 h ([3]; kidneys, 4 h pi + co-injection of 50 nmol Tate, read-out: Kidneys uptake, blocked): 24.4 ± 9.15 %ID/g
- tissue uptake at 1 h [3, 17]: 1.27 ± 0.09 %ID/g
- tissue uptake at 4 h [3, 18]: 0.95 ± 0.21 %ID/g
- tissue uptake at 4 h ([3]; liver, 4 h pi + co-injection of 50 nmol Tate, read-out: Liver uptake, blocked): 1.02 ± 0.11 %ID/g
- tissue uptake at 1 h [3, 19]: 2.05 ± 0.52 %ID/g
- tissue uptake at 4 h [3, 20]: 1.43 ± 1.36 %ID/g
- tissue uptake at 4 h ([3]; lung, 4 h pi + co-injection of 50 nmol Tate, read-out: Lung uptake, blocked): 3.3 ± 4.93 %ID/g
- tissue uptake at 1 h [3, 21]: 0.22 ± 0.02 %ID/g
- tissue uptake at 4 h [3, 22]: 0.06 ± 0.01 %ID/g
- tissue uptake at 4 h ([3]; muscle, 4 h pi + co-injection of 50 nmol Tate, read-out: Muscle uptake, blocked): 0.07 ± 0.01 %ID/g
- tissue uptake at 1 h [3, 23]: 7.35 ± 0.74 %ID/g
- tissue uptake at 4 h [3, 24]: 5.13 ± 0.75 %ID/g
- tissue uptake at 4 h ([3]; pancreas, 4 h pi + co-injection of 50 nmol Tate, read-out: Pancreas uptake, blocked): 0.15 ± 0.05 %ID/g
- tissue uptake at 4 h [3, 25]: 1.1 ± 0.63 %ID/g
- tissue uptake at 4 h ([3]; spleen, 4 h pi + co-injection of 50 nmol Tate, read-out: Spleen uptake, blocked): 0.61 ± 0.18 %ID/g
- tissue uptake at 1 h [3, 26]: 3.23 ± 0.77 %ID/g
- tissue uptake at 4 h [3, 27]: 1.81 ± 0.47 %ID/g
- tissue uptake at 4 h ([3]; stomach, 4 h pi + co-injection of 50 nmol Tate, read-out: Stomach uptake, blocked): 0.18 ± 0.07 %ID/g
- tissue uptake at 4 h [4, 8]: 0.23 ± 0.07 %ID/g
- tissue uptake at 4 h ([4]; blood, 4 h pi + co-injection of 35 nmol DP2, read-out: Blood uptake, blocked): 0.66 ± 0.35 %ID/g
- tissue uptake at 4 h [4, 9]: 0.24 ± 0.09 %ID/g
- tissue uptake at 4 h ([4]; femur, 4 h pi + co-injection of 35 nmol DP2, read-out: Femur uptake, blocked): 0.21 ± 0.11 %ID/g
- tissue uptake at 4 h [4, 11]: 0.22 ± 0.05 %ID/g
- tissue uptake at 4 h ([4]; heart, 4 h pi + co-injection of 35 nmol DP2, read-out: Heart uptake, blocked): 0.38 ± 0.1 %ID/g
- tissue uptake at 4 h [4, 13]: 2 ± 0.48 %ID/g
- tissue uptake at 4 h ([4]; intestines, 4 h pi + co-injection of 35 nmol DP2, read-out: Intestines uptake, blocked): 1.74 ± 1.02 %ID/g
- tissue uptake at 4 h [4, 14]: 1.49 ± 0.2 %ID/g
- tissue uptake at 4 h ([4]; 4 h pi + co-injection of 35 nmol DP2, read-out: Tumor uptake, blocked): 0.27 ± 0.2 %ID/g
- tissue uptake at 4 h [4, 16]: 23.2 ± 7.04 %ID/g
- tissue uptake at 4 h ([4]; kidneys, 4 h pi + co-injection of 35 nmol DP2, read-out: Kidneys uptake, blocked): 25.5 ± 3.7 %ID/g
- tissue uptake at 4 h [4, 18]: 1.31 ± 0.36 %ID/g
- tissue uptake at 4 h ([4]; liver, 4 h pi + co-injection of 35 nmol DP2, read-out: Liver uptake, blocked): 0.963 ± 0.67 %ID/g
- tissue uptake at 4 h [4, 20]: 1.37 ± 0.55 %ID/g
- tissue uptake at 4 h ([4]; lung, 4 h pi + co-injection of 35 nmol DP2, read-out: Lung uptake, blocked): 0.47 ± 0.08 %ID/g
- tissue uptake at 4 h [4, 22]: 0.07 ± 0.02 %ID/g
- tissue uptake at 4 h ([4]; muscle, 4 h pi + co-injection of 35 nmol DP2, read-out: Muscle uptake, blocked): 0.07 ± 0.03 %ID/g
- tissue uptake at 4 h [4, 24]: 5.73 ± 1.28 %ID/g
- tissue uptake at 4 h ([4]; pancreas, 4 h pi + co-injection of 35 nmol DP2, read-out: Pancreas uptake, blocked): 0.16 ± 0.1 %ID/g
- tissue uptake at 4 h [4, 25]: 0.46 ± 0.11 %ID/g
- tissue uptake at 4 h ([4]; spleen, 4 h pi + co-injection of 35 nmol DP2, read-out: Spleen uptake, blocked): 0.5 ± 0.36 %ID/g
- tissue uptake at 4 h [4, 27]: 1.96 ± 0.53 %ID/g
- tissue uptake at 4 h ([4]; stomach, 4 h pi + co-injection of 35 nmol DP2, read-out: Stomach uptake, blocked): 1.29 ± 0.36 %ID/g
- tissue uptake at 4 h [5, 28]: 0.19 ± 0.03 %ID/g
- tissue uptake at 4 h [5, 29]: 0.23 ± 0.03 %ID/g
- tissue uptake at 4 h [5, 10]: 0.15 ± 0.04 %ID/g
- tissue uptake at 4 h [5, 12]: 2.39 ± 0.43 %ID/g
- tissue uptake at 4 h [5, 30]: 1.24 ± 0.27 %ID/g
- tissue uptake at 4 h [5, 15]: 23.4 ± 4.69 %ID/g
- tissue uptake at 4 h [5, 17]: 1.02 ± 0.19 %ID/g
- tissue uptake at 4 h [5, 19]: 0.68 ± 0.29 %ID/g
- tissue uptake at 4 h [5, 21]: 0.06 ± 0.01 %ID/g
- tissue uptake at 4 h [5, 23]: 3.33 ± 0.4 %ID/g
- tissue uptake at 4 h [5, 31]: 0.82 ± 0.11 %ID/g
- tissue uptake at 4 h [5, 26]: 3.41 ± 0.97 %ID/g
- tissue uptake at 4 h [6, 28]: 0.1 ± 0.04 %ID/g
- tissue uptake at 4 h [6, 10]: 0.15 ± 0.02 %ID/g
- tissue uptake at 4 h [6, 12]: 1.54 ± 0.09 %ID/g
- tissue uptake at 4 h [6, 30]: 0.41 ± 0.12 %ID/g
- tissue uptake at 4 h [6, 15]: 24.1 ± 1.21 %ID/g
- tissue uptake at 4 h [6, 17]: 1.1 ± 0.08 %ID/g
- tissue uptake at 4 h ([6]; lung, 10 pmol, read-out: Lung uptake): 0.56 ± 0.28 %ID/g
- tissue uptake at 4 h [6, 21]: 0.06 ± 0.01 %ID/g
- tissue uptake at 4 h [6, 23]: 2.79 ± 0.4 %ID/g
- tissue uptake at 4 h [6, 31]: 0.78 ± 0.07 %ID/g
- tissue uptake at 4 h [6, 26]: 3.06 ± 0.73 %ID/g
- tissue uptake at 1 h [7, 28]: 1.34 ± 0.21 %ID/g
- tissue uptake at 1 h [7, 29]: 0.49 ± 0.12 %ID/g
- tissue uptake at 1 h [7, 30]: 3.05 ± 0.51 %ID/g
- tissue uptake at 1 h [7, 31]: 0.84 ± 0.21 %ID/g
Compound: C[C@H](NC(=O)CN1CCN(CC(=O)O)CCN(CC(=O)O)CCN(CC(=O)O)CC1)C(=O)NCC(=O)N[C@H]1CSSC[C@@H](C(=O)O)NC(=O)[C@H](CO)NC(=O)[C@H]([C@@H](C)O)NC(=O)[C@H](Cc2ccccc2)NC(=O)[C@H]([C@@H](C)O)NC(=O)[C@H](CCCCN)NC(=O)[C@@H](Cc2c[nH]c3ccccc23)NC(=O)[C@H](Cc2ccccc2)NC(=O)[C@H](Cc2ccccc2)NC(=O)[C@H](CC(N)=O)NC(=O)[C@H](CCCCN)NC1=O [[^111In]AT2S, metal not drawn]
